Assay results from patent US7365194B2 (Pondicherry University and Department of Biotechnology, priority 2004, dated 2008).

Key:
[1] = test system: phytopathogens; details: in vitro, complete ionization to an inactive carboxylate ion; cited from earlier work
[2] = test system: Pseudomonas aeruginosa; assay: Antimicrobial MIC, agar/disc diffusion; assay type: cell-based; details: 27° C. to about 37° C. for 48 hr
Procedure: (§1) Assay plates were incubated at 28° C. for 3 days to observe the zone of growth-inhibition of test microorganisms.
(§2) Test compound was dissolved in chloroform at various concentrations, separately loaded on to sterile filter paper discs (Whatman No.1, 6 mm diameter) and placed on the surface of agar plates pre-inoculated with the test pathogens. Assay plates were incubated at 27° C. for 72 hr for fungi and 27° C. to about 37° C. for 48 hr for bacteria.

[3] = test system: Rhizoctonia solani; assay: Antimicrobial MIC, agar/disc diffusion; assay type: cell-based; details: 27° C. for 72 hr
Procedure: as §1, §2

[4] = test system: Botrytis cinera; assay: Antimicrobial MIC, agar/disc diffusion; assay type: cell-based; details: 27° C. for 72 hr
Procedure: as §1, §2

[5] = test system: Macrophomina phaeseolina; assay: Antimicrobial MIC, agar/disc diffusion; assay type: cell-based; details: 27° C. for 72 hr
Procedure: as §1, §2

[6] = test system: Colletotrichum gleosporoides; assay: Antimicrobial MIC, agar/disc diffusion; assay type: cell-based; details: 27° C. for 72 hr
Procedure: as §1, §2

[7] = test system: Salmonella typhimurium; assay: Antimicrobial MIC, agar/disc diffusion; assay type: cell-based; details: 27° C. to about 37° C. for 48 hr
Procedure: as §1, §2

[8] = test system: Sarocladium oryzae; assay: Antimicrobial MIC, agar/disc diffusion; assay type: cell-based; details: 27° C. for 72 hr
Procedure: as §1, §2

[9] = test system: Fusarium oxysporum sub sp. cubense; assay: Antimicrobial MIC, agar/disc diffusion; assay type: cell-based; details: 27° C. for 72 hr
Procedure: as §1, §2

[10] = test system: C. falcatum; assay: Antimicrobial MIC, agar/disc diffusion; assay type: cell-based; details: 27° C. for 72 hr
Procedure: as §1, §2

[11] = test system: Staphylococcus aureus; assay: Antimicrobial MIC, agar/disc diffusion; assay type: cell-based; details: 27° C. to about 37° C. for 48 hr
Procedure: as §1, §2

[12] = test system: C. capsici; assay: Antimicrobial MIC, agar/disc diffusion; assay type: cell-based; details: 27° C. for 72 hr
Procedure: as §1, §2

[13] = test system: Escherichia coli; assay: Antimicrobial MIC, agar/disc diffusion; assay type: cell-based; details: 27° C. to about 37° C. for 48 hr
Procedure: as §1, §2

[14] = test system: plant, animal and human pathogens; assay: Antimicrobial activity in acidic and alkaline pH; assay type: cell-based; details: in vitro
Procedure: as §1, §2

[15] = test system: cell lines; assay: MTT cytotoxicity assay; assay type: cell-based; set-up: dose or concentration left out as unconfirmed; details: average of three replicates
Procedure: (§3) At the end of incubation, 20 μL MTT (5 mg/mL) was added and cells were incubated at 37° C. After 4 hr, MTT was removed and 100 μL of DMSO was added. Cell viability was determined by measuring the absorbance at a test wavelength of 570 nm.
as §3, with “Cytotoxycity of dimer of phenazine-1-carboxylic acid natural product against cell lines was determined by MTT assay. […] At” for “At”

Molecule | effectiveness in alkaline pH [1] | MIC [2] | MIC [3] | MIC [4] | MIC [5] | MIC [6] | MIC [7] | MIC [8] | MIC [9] | MIC [10] | MIC [11] | MIC [12] | MIC [13] | antimicrobial activity [14] | OD @ 570 nm ([15]; concentration 1, 24 hr at 37° C.) | OD @ 570 nm ([15]; concentration 10, 24 hr at 37° C.) | OD @ 570 nm ([15]; concentration 25, 24 hr at 37° C.) | OD @ 570 nm ([15]; concentration 50, 24 hr at 37° C.)
O=C(O)c1cccc2nc3ccccc3nc12 [PCA, phenazine 1-carboxylic acid] | ineffective | – | – | – | – | – | – | – | – | – | – | – | – | – | – | – | – | –
dimer of phenazine-1-carboxylic acid | – | >90 µg/mL | 2 µg/mL | 14 µg/mL | 12 µg/mL | 7 µg/mL | >120 µg/mL | 3 µg/mL | 7 µg/mL | 5 µg/mL | >120 µg/mL | 7 µg/mL | >100 µg/mL | showed antimicrobial activity | 0.531 | 0.472 | 0.366 | 0.285
